Key:
Type in all cases: functional
Candida albicans = test: Antimicrobial activity against Candida albicans at 200 ug/ml after 7 days by agar plate method; settings: 168 h
Micrococcus luteus = test: Antimicrobial activity against Micrococcus luteus at 1 mg/ml after 24 hr by agar well diffusion method; settings: read-out: DIZ
Staphylococcus aureus = test: Antimicrobial activity against Staphylococcus aureus at 1 mg/ml after 24 hr by agar well diffusion method; settings: read-out: DIZ
Bacillus subtilis = test: Antimicrobial activity against Bacillus subtilis at 1 mg/ml after 24 hr by agar well diffusion method; settings: read-out: DIZ
Pseudomonas aeruginosa = test: Antimicrobial activity against Pseudomonas aeruginosa at 1 mg/ml after 24 hr by agar well diffusion method; settings: read-out: DIZ
Escherichia coli = test: Antimicrobial activity against Escherichia coli at 1 mg/ml after 24 hr by agar well diffusion method; settings: read-out: DIZ
Trichophyton longifusum = test: Antimicrobial activity against Trichophyton longifusum at 200 ug/ml after 7 days by agar plate method; settings: 168 h
Fusarium solani = test: Antimicrobial activity against Fusarium solani at 200 ug/ml after 7 days by agar plate method; settings: 168 h
Microsporum canis = test: Antimicrobial activity against Arthroderma otae at 200 ug/ml after 7 days by agar plate method; settings: 168 h

SMILES | inhibition at 200 µg/mL (Candida albicans) | zone of inhibition at 1000 µg/mL (Micrococcus luteus) | zone of inhibition at 1000 µg/mL (Staphylococcus aureus) | zone of inhibition at 1000 µg/mL (Bacillus subtilis) | zone of inhibition at 1000 µg/mL (Pseudomonas aeruginosa) | zone of inhibition at 1000 µg/mL (Escherichia coli) | inhibition at 200 µg/mL (Trichophyton longifusum) | inhibition at 200 µg/mL (Fusarium solani) | inhibition at 200 µg/mL (Microsporum canis)
COc1cc([C@@H]2[C@H](Oc3ccc(Cl)cc3Cl)C(=O)N2c2sc3c(c2C#N)C=C(/C=C/c2c(C)nn(-c4ccccc4)c2Cl)CC3(C)C)cc(OC)c1OC | 50% | < 10 mm | 10.6 mm | 11.6 mm | 11.7 mm | 12.9 mm | – | – | –
Cc1nn(-c2ccccc2)c(Cl)c1/C=C/C1=Cc2c(sc(N3C(=O)[C@@H](Oc4ccc(Cl)cc4Cl)[C@H]3c3ccc(Cl)cc3)c2C#N)C(C)(C)C1 (relative stereo) | – | < 10 mm | 10.6 mm | 12.4 mm | 11.2 mm | 13.9 mm | 35% | – | –
Cc1nn(-c2ccccc2)c(Cl)c1/C=C/C1=Cc2c(sc(N3C(=O)[C@@H](Oc4ccc(Cl)cc4Cl)[C@H]3c3ccc(Cl)c(Cl)c3)c2C#N)C(C)(C)C1 (relative stereo) | – | < 10 mm | < 10 mm | 11.2 mm | 10.8 mm | 12 mm | – | – | –
Cc1nn(-c2ccccc2)c(Cl)c1/C=C/C1=Cc2c(sc(N3C(=O)[C@@H](Oc4ccc(Cl)cc4Cl)[C@H]3c3ccc(N(C)C)cc3)c2C#N)C(C)(C)C1 (relative stereo) | – | < 10 mm | < 10 mm | < 10 mm | < 10 mm | 14.6 mm | – | – | –
Cc1nn(-c2ccccc2)c(Cl)c1/C=C/C1=Cc2c(sc(N3C(=O)[C@@H](Oc4ccc(Cl)cc4Cl)[C@H]3c3ccccc3O)c2C#N)C(C)(C)C1 (relative stereo) | 91% | < 10 mm | 12.3 mm | 18.9 mm | 11.6 mm | 17.6 mm | 89% | – | –
COc1ccc([C@@H]2[C@H](Oc3ccc(Cl)cc3Cl)C(=O)N2c2sc3c(c2C#N)C=C(/C=C/c2c(C)nn(-c4ccccc4)c2Cl)CC3(C)C)cc1 (relative stereo) | 30% | < 10 mm | 11.3 mm | 12.5 mm | 11.9 mm | 15.6 mm | – | 25% | –
COc1ccc([C@@H]2[C@H](Oc3ccc(Cl)cc3Cl)C(=O)N2c2sc3c(c2C#N)C=C(/C=C/c2c(C)nn(-c4ccccc4)c2Cl)CC3(C)C)cc1O (relative stereo) | – | < 10 mm | < 10 mm | < 10 mm | < 10 mm | 13.7 mm | – | – | –
Cc1nn(-c2ccccc2)c(Cl)c1/C=C/C1=Cc2c(sc(N3C(=O)[C@@H](Oc4ccc(Cl)cc4Cl)[C@H]3c3ccc([N+](=O)[O-])cc3)c2C#N)C(C)(C)C1 (relative stereo) | – | < 10 mm | < 10 mm | 11.2 mm | 12.1 mm | 14 mm | – | – | –
Cc1nn(-c2ccccc2)c(Cl)c1/C=C/C1=Cc2c(sc(N3C(=O)[C@@H](Oc4ccc(Cl)cc4Cl)[C@H]3c3ccccc3)c2C#N)C(C)(C)C1 (relative stereo) | – | < 10 mm | < 10 mm | 11.7 mm | 11.7 mm | 14.2 mm | 40% | – | 50%
Cc1nn(-c2ccccc2)c(Cl)c1/C=C/C1=Cc2c(sc(N3C(=O)[C@@H](Oc4ccc(Cl)cc4Cl)[C@H]3c3ccccc3Cl)c2C#N)C(C)(C)C1 (relative stereo) | 94% | 13.1 mm | 11.3 mm | 18.7 mm | 10.6 mm | 17.8 mm | 92% | 40% | –
C=CC1=C(C(=O)O)N2C(=O)[C@@H](NC(=O)/C(=N\OCC(=O)O)c3csc(N)n3)[C@H]2SC1 [CEFIXIME] | – | 34.1 mm | 36.1 mm | 28.7 mm | 17.8 mm | 30 mm | – | – | –
O=C(N[C@H](CO)[C@H](O)c1ccc([N+](=O)[O-])cc1)C(Cl)Cl [CHLORAMPHENICOL] | – | 17.2 mm | 16.4 mm | 18.8 mm | 19.6 mm | 17 mm | – | – | –
Clc1ccc(COC(Cn2ccnc2)c2ccc(Cl)cc2Cl)c(Cl)c1 (stereo not given) [MICONAZOLE] | 90% | – | – | – | – | – | 100% | 90% | 90%

From ChEMBL document CHEMBL3045239, “Synthesis and antimicrobial evaluation of novel benzo[b]thiophenes comprising -lactam nucleus” (2012)
